Results as given in US20080269251A1, “Substituted Pyrazinone Derivatives as Alpha2C-Adrenoreceptor Antagonists” (priority 2005, published 2008).

Tests used:
[1] = biological target: T1, human adrenergic-α2C receptor (Homo sapiens, UniProt P18825); test: Radioligand binding experiment for hα2C-adrenoceptor ([3H]raulwolscine); conditions: [3H]raulwolscine 1 nM, 60 minutes at 25° C.; read-out: h-α2C pIC50 (converted)
T1 construct: expressed in transfected cells; host or cells: CHO cells, stably transfected; membrane preparation
T1 sequence (P18825 1-462): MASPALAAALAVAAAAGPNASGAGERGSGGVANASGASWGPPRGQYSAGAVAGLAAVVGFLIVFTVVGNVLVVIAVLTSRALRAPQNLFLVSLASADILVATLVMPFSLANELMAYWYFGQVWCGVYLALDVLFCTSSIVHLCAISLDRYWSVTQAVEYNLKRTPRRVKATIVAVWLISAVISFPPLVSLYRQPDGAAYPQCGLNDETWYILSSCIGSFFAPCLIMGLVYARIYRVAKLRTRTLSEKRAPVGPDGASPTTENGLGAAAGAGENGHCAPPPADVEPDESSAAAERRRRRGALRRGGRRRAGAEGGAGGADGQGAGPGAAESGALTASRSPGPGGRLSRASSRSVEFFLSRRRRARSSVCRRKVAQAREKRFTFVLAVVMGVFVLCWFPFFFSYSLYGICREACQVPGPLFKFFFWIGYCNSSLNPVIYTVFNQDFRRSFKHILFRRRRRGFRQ
Summary of the method: (§1)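 CHO membranes expressing human α2A or α2C receptors were incubated with 1 nM [^3H]raulwolscine for 60 min at 25° C in glycylglycine 25 mM, pH 8.0, then filtered. Nonspecific binding was defined with 1 μM oxymetazoline for α2A and 1 μM spiroxatrine for α2C. pIC50 came from sigmoidal competition curves.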

[2] = biological target: T2, human adrenergic-α2A receptor (Homo sapiens, UniProt P08913); test: Radioligand binding experiment for hα2A-adrenergic receptor ([3H]raulwolscine); conditions: [3H]raulwolscine 1 nM, 60 minutes at 25° C.; read-out: h-α2A pIC50 (converted)
T2 construct: expressed in transfected cells; host or cells: CHO cells, stably transfected; membrane preparation
T2 sequence (P08913 1-465): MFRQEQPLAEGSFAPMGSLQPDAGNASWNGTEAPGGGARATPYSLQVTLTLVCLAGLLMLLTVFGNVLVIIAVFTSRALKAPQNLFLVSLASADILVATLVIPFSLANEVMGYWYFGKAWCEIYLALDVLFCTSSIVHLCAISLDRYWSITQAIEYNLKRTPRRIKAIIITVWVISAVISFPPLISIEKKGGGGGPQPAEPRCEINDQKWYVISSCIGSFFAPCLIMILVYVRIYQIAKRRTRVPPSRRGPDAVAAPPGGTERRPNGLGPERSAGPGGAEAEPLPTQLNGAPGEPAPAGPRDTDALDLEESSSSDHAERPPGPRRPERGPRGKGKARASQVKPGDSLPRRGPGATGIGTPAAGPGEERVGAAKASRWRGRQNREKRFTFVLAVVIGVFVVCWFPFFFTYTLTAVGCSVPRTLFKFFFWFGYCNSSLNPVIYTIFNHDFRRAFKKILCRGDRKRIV
Summary of the method: as §1

5HT-transporter = biological target: T3, 5HT-transporter (Homo sapiens, UniProt P31645); test: Binding experiment for the 5HT-transporter ([3H]paroxetine, human platelet membranes); conditions: [3H]paroxetine 0.5 nM, 60 min at 25° C., read-out: h-5HTT pIC50 (converted)
T3 construct: Human platelet membranes (Oceanix Biosciences Corporation, Hanover, Md., USA) were thawed; tissue Oceanix Biosciences Corporation, Hanover, Md., USA; host or cells: human platelet membranes
Summary of the method: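 Competition binding of [3H]paroxetine to human platelet membranes in Tris-HCl 50 mM with 120 mM NaCl and 5 mM KCl; bound radioligand separated by GF/B filtration and counted.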

T3 sequence (P31645 whole entry): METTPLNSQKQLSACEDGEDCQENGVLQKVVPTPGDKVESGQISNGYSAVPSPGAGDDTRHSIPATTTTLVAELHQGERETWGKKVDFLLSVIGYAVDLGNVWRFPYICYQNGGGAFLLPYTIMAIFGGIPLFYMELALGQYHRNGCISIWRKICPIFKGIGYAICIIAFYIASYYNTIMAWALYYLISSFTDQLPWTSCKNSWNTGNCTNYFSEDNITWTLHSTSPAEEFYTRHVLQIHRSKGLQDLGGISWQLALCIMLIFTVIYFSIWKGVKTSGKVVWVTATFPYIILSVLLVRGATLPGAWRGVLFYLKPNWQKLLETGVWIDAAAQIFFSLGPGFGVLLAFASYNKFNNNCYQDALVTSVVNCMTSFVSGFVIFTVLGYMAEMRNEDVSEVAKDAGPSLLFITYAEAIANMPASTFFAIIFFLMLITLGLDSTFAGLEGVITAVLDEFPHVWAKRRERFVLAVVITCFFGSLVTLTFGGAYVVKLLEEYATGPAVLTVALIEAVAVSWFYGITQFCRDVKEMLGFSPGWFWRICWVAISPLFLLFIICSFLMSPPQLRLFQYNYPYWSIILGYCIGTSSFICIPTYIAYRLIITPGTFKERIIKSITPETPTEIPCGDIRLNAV

IC50 [1]	IC50 [2]	IC50 (5HT-transporter)	melting point	SMILES
15.8 nM	39.8 nM	20 nM	117.5 °C	CCCCNc1cccc(-n2ccnc(NC3CCN(Cc4ccc5ccccc5c4)CC3)c2=O)c1 [1-05]
39.8 nM	200 nM	20 nM	210.1 °C	CCCNC(=O)c1ccc(-n2ccnc(NC3CCN(Cc4ccc5ccccc5c4)CC3)c2=O)cc1 [1-09]
7.94 nM	398 nM	7.94 nM	95 °C	CCCC(=O)NCc1ccc(-n2ccnc(NC3CCN(Cc4ccc5ccccc5c4)CC3)c2=O)cc1F [1-26]
10 nM	200 nM	15.8 nM	> 300 °C	O=c1c(NC2CCN(Cc3ccc4ccccc4c3)CC2)nccn1-c1ccc(NCC2CCCO2)cc1 (stereo not drawn) [1-78]
5.01 nM	158 nM	3.16 nM	> 300 °C	O=c1c(NC2CCN(Cc3ccc4ccccc4c3)CC2)nccn1-c1ccc(CNCC2CCCO2)cc1 (stereo not drawn) [1-79a]
25.1 nM	79.4 nM	3.16 nM	172.3 °C	O=C(NCCN1CCCCC1)c1ccc(-n2ccnc(NC3CCN(Cc4ccc5ccccc5c4)CC3)c2=O)cc1 [1-88]
63.1 nM	316 nM	15.8 nM	271 °C	O=C(NCCN1CCOCC1)c1ccc(-n2ccnc(NC3CCN(Cc4ccc5ccccc5c4)CC3)c2=O)cc1 [1-91]
15.8 nM	316 nM	12.6 nM	195.3 °C	O=c1c(NC2CCN(Cc3ccc4ccccc4c3)CC2)nccn1-c1ccc(NCCN2CCOCC2)cc1 [1-92]
12.6 nM	316 nM	15.8 nM	183.4 °C	O=C(CCN1CCOCC1)Nc1ccc(-n2ccnc(NC3CCN(Cc4ccc5ccccc5c4)CC3)c2=O)cc1 [1-97]
63.1 nM	316 nM	15.8 nM	117.7 °C	C=CCSc1ncccc1C(=O)NCc1ccc(-n2ccnc(NC3CCN(Cc4ccc5ccccc5c4)CC3)c2=O)cc1 [1-102]
25.1 nM	100 nM	63.1 nM	271.4 °C	O=C(c1ccc(-n2ccnc(NC3CCN(Cc4ccc5ccccc5c4)CC3)c2=O)cc1)N1CCOCC1 [2-08]
25.1 nM	200 nM	158 nM	161.2 °C	O=c1c(NC2CCN(Cc3ccc4ccccc4c3)CC2)nccn1CCN1CCCCC1 [2-10]
3.98 nM	79.4 nM	3.98 nM	172.8 °C	O=C1c2ccccc2C(=O)N1C/C=C/Cn1ccnc(NC2CCN(Cc3ccc4ccccc4c3)CC2)c1=O [2-18]
3.98 nM	126 nM	12.6 nM	76.5 °C	O=C1c2ccccc2C(=O)N1CCCn1ccnc(NC2CCN(Cc3ccc4ccccc4c3)CC2)c1=O [2-19]
7.94 nM	398 nM	15.8 nM	96.3 °C	O=C1c2ccccc2C(=O)N1CC#CCn1ccnc(NC2CCN(Cc3ccc4ccccc4c3)CC2)c1=O [2-20]
79.4 nM	100 nM	39.8 nM	196.5 °C	COC(=O)c1ccc(-n2ccnc(NC3CCN(Cc4ccc5ccccc5c4)CC3)c2=O)cc1 [3-05]
3.98 nM	200 nM	5.01 nM	153.9 °C	O=c1c(NC2CCN(Cc3ccc4ccccc4c3)CC2)nccn1-c1ccc(COCCN2CCOCC2)cc1 [3-13]
39.8 nM	126 nM	39.8 nM	152.8 °C	O=c1c(NC2CCN(Cc3ccc4ccccc4c3)CC2)nccn1-c1ccsc1 [6-05]
50.1 nM	398 nM	100 nM	> 300 °C	O=c1c(NC2CCN(Cc3ccc4ccccc4c3)CC2)nccn1-c1cccnc1 [6-06]
63.1 nM	200 nM	100 nM	125.1 °C	O=c1c(NC2CCN(Cc3ccc4ccccc4c3)CC2)nccn1-c1ccncc1 [6-07]
6.31 nM	79.4 nM	15.8 nM	134.7 °C	O=c1c(NC2CCN(Cc3ccc4ccccc4c3)CC2)nccn1-c1ccc2c(c1)CN(Cc1ncc[nH]1)CC2 [6-14]
